# According to patent US9801372B2, “Polymers for increasing the soil mobility of low-solubility insecticides” (BASF SE, priority 2009, dated 2017):
# Protocol: First, a calibration with the active ingredient to be determined is performed at a suitable wavelength in different concentrations. To study the solubilization with a polymeric solubilizer, a 1% by weight polymer solution is prepared and the UV absorption is measured at said wavelength. The polymer solution is saturated with the active ingredient to be analyzed and equilibrated for 24 h. After centrifugation of the solution and UV analysis of the supernatant at said wavelength, after subtracting the polymer absorption over the calibration curve, the dissolved active ingredient concentration can be concluded.
# The fipronil concentration was determined by means of UV spectroscopy at 278 nm; to this end, the absorption of the polymer (1% by weight in water) was first determined alone. Subsequently, an excess of fipronil was added and the mixture was stirred at room temperature overnight. The centrifuged solution was analyzed once again at 278 nm in the UV instrument. After subtracting the appropriate solubilizer spectrum and comparing by means of a fipronil calibration curve produced beforehand, it was possible to determine the concentration of dissolved fipronil.
row,Compound,Fipronil solubility in ppm
1,Triton X-100,13 ppm
2,N#Cc1nn(-c2c(Cl)cc(C(F)(F)F)cc2Cl)c(N)c1[S+]([O-])C(F)(F)F (centres unmarked) [Fipronil],2.2 ppm
